Experiment [1] concerns the target Tyrosine-protein kinase JAK2 (Homo sapiens, UniProt O60674). Description: Selectivity interaction (Upstate Kinase Profiler service (Millipore)) EUB0000056c JAK2. The following applies: at 1 µM.
Experiment [2] has as its target MAP/microtubule affinity-regulating kinase 3 (Homo sapiens) (UniProt P27448). The experiment can be described thus: Selectivity interaction (ProQinase) EUB0000171b MARK3.
The target in experiment [3] is T1, Dual specificity protein kinase TTK (Homo sapiens) (UniProt P33981).
T1 sequence (whole entry): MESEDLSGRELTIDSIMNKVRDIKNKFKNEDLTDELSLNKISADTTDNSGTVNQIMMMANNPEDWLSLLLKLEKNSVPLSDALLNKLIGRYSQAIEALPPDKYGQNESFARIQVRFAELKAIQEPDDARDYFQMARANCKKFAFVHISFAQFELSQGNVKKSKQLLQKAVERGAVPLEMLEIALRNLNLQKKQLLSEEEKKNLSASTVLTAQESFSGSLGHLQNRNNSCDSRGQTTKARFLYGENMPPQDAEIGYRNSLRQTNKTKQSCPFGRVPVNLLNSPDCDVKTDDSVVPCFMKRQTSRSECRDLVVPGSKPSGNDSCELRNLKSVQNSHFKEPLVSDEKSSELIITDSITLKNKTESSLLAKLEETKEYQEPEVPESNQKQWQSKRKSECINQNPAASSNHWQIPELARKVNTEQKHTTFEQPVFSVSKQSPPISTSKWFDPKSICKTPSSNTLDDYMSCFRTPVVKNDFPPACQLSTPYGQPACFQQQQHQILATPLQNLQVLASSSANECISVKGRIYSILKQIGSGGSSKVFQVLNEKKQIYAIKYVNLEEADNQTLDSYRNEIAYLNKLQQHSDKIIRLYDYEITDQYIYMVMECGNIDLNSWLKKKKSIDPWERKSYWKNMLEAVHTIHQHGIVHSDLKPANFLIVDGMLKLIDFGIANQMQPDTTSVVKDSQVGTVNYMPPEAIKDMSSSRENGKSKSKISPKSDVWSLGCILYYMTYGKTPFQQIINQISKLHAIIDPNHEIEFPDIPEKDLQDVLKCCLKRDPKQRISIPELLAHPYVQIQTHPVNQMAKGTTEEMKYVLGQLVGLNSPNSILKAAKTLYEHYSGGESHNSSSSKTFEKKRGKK
Description: Selectivity interaction (Kinase panel (DSF assay)) EUB0001558a TTK. (In general: Differential scanning fluorimetry follows unfolding on heating by fluorescence.)

For experiment [4], the target named is Dual specificity mitogen-activated protein kinase kinase 1 (Homo sapiens, UniProt Q02750). Description: Selectivity interaction (KinomeScan (DiscoverX)) EUB0001079a MAP2K1. To be noted: at 1 µM.
The target of experiment [5] is T2, Activin receptor type-1 (Homo sapiens) (UniProt Q04771).
T2 sequence (whole entry): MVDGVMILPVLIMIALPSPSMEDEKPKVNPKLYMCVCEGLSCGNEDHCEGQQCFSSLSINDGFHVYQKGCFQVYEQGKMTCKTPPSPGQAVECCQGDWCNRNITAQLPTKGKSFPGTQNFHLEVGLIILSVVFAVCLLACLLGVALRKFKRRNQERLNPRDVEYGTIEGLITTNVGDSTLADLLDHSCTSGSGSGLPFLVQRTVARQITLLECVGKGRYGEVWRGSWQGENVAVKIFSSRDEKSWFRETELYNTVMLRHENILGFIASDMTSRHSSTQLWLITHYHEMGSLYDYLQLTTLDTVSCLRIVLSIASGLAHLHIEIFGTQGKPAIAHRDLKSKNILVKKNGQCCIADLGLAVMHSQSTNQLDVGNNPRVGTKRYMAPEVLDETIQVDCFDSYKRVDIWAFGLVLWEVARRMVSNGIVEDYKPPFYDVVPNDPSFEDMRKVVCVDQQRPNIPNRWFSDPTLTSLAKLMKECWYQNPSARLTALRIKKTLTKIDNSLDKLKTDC
Description: Selectivity interaction (KinomeScan (DiscoverX)) EUB0000655a ACVR1. To be noted: at 10 µM.

In experiment [6] the target is T3, Tyrosine-protein kinase TXK (Homo sapiens) (UniProt P42681).
T3 sequence (whole entry): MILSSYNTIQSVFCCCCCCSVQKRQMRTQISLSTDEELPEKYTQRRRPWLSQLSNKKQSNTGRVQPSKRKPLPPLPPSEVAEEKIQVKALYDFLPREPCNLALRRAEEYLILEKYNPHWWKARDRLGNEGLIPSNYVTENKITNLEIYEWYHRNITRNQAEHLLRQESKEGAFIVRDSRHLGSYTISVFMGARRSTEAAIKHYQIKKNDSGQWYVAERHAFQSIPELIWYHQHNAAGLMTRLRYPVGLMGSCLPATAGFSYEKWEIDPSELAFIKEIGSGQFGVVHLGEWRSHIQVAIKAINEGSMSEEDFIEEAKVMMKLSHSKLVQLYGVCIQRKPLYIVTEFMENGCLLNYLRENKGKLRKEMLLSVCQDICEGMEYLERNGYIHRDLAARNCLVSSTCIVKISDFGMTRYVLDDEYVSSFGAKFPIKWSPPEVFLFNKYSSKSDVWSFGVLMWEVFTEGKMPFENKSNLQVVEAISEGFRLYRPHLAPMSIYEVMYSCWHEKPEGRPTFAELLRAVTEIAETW
Description: Selectivity interaction (Kinase panel (Z-LYTE Assay)) EUB0001632a TXK. The following applies: at 10 µM.

The target of experiment [7] is Serine/threonine-protein kinase Chk2 (Homo sapiens) (UniProt O96017). Description: Selectivity interaction (KinomeScan (DiscoverX)) EUB0000607a CHEK2. To be noted: at 10 µM.
Experiment [8] has as its target Casein kinase II subunit alpha (Homo sapiens, UniProt P68400). The experiment can be described thus: Selectivity interaction (KinomeScan (DiscoverX)) EUB0000229b CSNK2A1. To be noted: at 10 µM.
Experiment [9] concerns the target Mitogen-activated protein kinase 14 (Homo sapiens, UniProt Q16539). Description: Selectivity interaction (Kinase panel (literature)) EUB0001199aCl MAPK14. The following applies: at 1 µM.

MAP/microtubule affinity-regulating kinase 3 (Homo sapiens), sequence (P27448 whole entry, looked up): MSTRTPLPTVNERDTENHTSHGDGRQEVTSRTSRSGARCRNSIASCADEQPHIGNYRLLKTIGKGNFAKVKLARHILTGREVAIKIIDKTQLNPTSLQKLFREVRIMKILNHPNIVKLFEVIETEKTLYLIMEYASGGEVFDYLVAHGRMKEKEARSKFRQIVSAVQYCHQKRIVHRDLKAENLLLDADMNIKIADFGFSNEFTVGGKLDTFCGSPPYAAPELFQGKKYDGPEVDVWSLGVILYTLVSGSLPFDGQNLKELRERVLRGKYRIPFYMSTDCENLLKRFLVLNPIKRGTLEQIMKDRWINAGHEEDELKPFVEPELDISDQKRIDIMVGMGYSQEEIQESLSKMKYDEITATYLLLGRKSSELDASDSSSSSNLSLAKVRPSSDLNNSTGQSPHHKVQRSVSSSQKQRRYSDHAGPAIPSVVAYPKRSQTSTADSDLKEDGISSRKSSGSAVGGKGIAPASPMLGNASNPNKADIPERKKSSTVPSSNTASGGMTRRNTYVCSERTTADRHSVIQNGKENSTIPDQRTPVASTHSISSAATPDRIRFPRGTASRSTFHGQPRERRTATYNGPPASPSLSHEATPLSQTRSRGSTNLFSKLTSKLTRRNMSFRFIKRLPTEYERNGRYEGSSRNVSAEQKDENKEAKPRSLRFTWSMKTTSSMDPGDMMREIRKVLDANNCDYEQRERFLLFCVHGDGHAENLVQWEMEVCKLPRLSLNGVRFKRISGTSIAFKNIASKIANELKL
Serine/threonine-protein kinase Chk2 (Homo sapiens), sequence (O96017 whole entry): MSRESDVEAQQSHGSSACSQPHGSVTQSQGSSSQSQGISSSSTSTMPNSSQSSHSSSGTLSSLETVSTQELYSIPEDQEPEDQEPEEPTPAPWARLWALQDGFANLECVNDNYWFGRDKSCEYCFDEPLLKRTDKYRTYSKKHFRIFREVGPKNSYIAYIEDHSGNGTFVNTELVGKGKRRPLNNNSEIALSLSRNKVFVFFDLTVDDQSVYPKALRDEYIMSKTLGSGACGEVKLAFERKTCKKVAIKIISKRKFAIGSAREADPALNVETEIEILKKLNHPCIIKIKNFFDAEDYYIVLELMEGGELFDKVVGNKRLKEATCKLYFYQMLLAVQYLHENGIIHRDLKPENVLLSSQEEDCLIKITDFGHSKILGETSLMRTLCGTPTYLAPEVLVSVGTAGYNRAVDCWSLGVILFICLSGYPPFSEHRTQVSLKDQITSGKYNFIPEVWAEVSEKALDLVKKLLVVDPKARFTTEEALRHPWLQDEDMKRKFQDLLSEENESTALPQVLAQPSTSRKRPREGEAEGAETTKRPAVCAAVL
Casein kinase II subunit alpha, sequence (P68400 whole entry, looked up): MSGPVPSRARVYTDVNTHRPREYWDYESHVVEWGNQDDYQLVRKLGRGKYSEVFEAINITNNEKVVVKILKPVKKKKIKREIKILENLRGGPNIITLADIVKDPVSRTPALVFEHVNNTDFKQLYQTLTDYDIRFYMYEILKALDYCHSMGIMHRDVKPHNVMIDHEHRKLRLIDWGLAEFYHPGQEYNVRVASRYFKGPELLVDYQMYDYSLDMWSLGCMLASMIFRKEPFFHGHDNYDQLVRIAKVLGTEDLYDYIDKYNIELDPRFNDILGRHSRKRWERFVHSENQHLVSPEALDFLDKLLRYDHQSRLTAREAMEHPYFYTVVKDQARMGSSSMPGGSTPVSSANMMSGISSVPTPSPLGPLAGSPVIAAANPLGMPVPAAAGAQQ
Tyrosine-protein kinase JAK2, sequence (O60674 whole entry): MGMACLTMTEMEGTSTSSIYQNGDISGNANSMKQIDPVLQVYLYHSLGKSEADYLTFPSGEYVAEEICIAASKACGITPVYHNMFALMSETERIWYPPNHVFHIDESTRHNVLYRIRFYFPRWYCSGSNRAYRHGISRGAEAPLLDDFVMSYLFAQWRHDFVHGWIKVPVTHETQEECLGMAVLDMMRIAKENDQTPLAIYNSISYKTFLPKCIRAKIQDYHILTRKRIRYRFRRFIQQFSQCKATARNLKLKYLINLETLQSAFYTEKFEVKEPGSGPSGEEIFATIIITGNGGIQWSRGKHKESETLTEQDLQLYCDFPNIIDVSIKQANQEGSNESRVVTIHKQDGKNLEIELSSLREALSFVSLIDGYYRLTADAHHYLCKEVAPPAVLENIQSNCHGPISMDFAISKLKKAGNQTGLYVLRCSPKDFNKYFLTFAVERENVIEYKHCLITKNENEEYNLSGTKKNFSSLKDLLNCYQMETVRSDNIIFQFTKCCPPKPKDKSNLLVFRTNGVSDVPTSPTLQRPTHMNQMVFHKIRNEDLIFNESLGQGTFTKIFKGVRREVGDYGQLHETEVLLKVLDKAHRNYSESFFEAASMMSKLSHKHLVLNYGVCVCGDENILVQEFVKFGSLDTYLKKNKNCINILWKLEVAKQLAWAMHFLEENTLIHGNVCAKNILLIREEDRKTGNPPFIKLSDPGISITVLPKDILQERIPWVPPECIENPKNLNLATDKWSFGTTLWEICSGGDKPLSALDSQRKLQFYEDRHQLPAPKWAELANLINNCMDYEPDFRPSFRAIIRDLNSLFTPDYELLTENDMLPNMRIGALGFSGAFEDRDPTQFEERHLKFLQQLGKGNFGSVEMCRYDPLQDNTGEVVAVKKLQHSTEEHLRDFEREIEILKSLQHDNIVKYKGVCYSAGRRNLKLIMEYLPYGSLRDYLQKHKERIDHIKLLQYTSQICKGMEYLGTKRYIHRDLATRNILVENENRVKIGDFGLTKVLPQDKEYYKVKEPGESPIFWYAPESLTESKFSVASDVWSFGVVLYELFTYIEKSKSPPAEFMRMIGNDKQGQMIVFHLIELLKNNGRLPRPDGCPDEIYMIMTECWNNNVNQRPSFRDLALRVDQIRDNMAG
Dual specificity mitogen-activated protein kinase kinase 1, sequence (Q02750 whole entry): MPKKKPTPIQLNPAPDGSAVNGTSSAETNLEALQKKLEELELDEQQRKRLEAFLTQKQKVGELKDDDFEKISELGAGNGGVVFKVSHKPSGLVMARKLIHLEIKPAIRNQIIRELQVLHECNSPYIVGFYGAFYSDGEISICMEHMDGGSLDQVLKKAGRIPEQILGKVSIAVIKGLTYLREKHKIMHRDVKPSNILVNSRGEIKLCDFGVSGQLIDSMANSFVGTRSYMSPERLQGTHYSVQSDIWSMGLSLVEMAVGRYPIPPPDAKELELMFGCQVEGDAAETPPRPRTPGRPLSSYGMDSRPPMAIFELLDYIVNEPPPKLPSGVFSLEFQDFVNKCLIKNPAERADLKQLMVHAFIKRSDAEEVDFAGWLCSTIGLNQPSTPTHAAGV
Mitogen-activated protein kinase 14, sequence (Q16539 whole entry): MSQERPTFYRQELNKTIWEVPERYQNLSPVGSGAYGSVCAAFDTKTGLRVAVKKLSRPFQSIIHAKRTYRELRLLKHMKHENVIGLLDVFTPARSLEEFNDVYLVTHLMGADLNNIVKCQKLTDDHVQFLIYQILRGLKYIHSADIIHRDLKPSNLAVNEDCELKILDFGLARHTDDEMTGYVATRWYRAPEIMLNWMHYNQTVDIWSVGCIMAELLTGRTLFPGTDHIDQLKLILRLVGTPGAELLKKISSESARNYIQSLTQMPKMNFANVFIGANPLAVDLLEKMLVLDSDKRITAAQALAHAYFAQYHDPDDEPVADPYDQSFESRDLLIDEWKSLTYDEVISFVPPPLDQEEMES

`Cc1ccc(-c2ccc3c(ccc4sc5c(c43)NC[C@@H](C)NC5=O)n2)cn1`: in experiment [1], the % of inhibition was 14%.
Turning to `C=CC(=O)Nc1cccc(C(=O)Nc2ccc(Nc3cc(-c4[nH]c(SC)nc4C)ccn3)cc2)c1`, the values for the % of control in [2] (at 1 µM) and in experiment [2] (at 5 µM) were 82% and 92%, respectively.
`CC(C)(O)[C@H](F)CN1Cc2cc(NC(=O)c3cnn4cccnc34)c(N3CCOCC3)cc2C1=O` had a dTM in experiment [3] of 0.3 K.
The compound `Nc1cnc(N2CCc3cc(S(=O)(=O)Nc4c(F)cc(Cl)cc4F)cc(N4CCCC4=O)c32)nc1` [TP-020n] displayed a % of control in experiment [4] of 100%.
As to `CN(C)CCOc1ccc(-c2nc(-c3ccncc3)c(-c3ccc4c(c3)CC/C4=N\O)[nH]2)cc1`, the % of control in experiment [5] was 51%.
On to `Cn1cc(-n2cnc3c(NCc4nc5cc(Cl)c(Cl)cc5[nH]4)nc(N4CCOCC4)nc32)cn1`, for which the % of control in experiment [6] was determined as 12.2%.
The compound `CNC(=O)Nc1ccc(-c2nc(N3CC4CCC(C3)O4)c3cnn(C4CCC5(CC4)OCCO5)c3n2)cc1` returned a % of control in experiment [7] of 84%.
For the compound `COc1cc(N(C)c2ccnc3ccc(C(F)(F)F)cc23)cc(OC)c1OC`, the % binding in experiment [8] came to 67%.
For `CN1Cc2nccc(-c3cn(C)nc3-c3ccc(F)cc3)c2C1=O`, the % of inhibition in experiment [9] was found to be 37%.

The record behind these values is ChEMBL document CHEMBL5465560, “Selectivity Literature for EUbOPEN Chemogenomic Library” (2024).
